# Key:
# [1] = test system: Hsp90 client proteins (Raf-1, total and phosphorylated Akt); test: Western blotting of Hsp90 client proteins in 293T cells; assay type: cell-based, human; conditions: 2 μM, 24 h, positive control
# Protocol: FIG. 5A is a digital image of a western blot analysis illustrating the effect of lead compounds on the expression of Hsp90 client proteins. 293T cells stably expressing Hsp90(α/β)/p23 split reporters were treated with carrier control or compounds CP1, CP9, or CP18 (5 μM each) for 24 h. The known Hsp90 inhibitor PU-H71 (2 μM) was used as a positive control. The expression of Hsp90 client proteins (Raf-1, total and phosphorylated Akt) was determined by western blotting. α-Tubulin was used as a loading control.
# Cells treated with PU-H71 (2 μM) served as a positive control.
# Cells treated with 2 μM of PU-H71 served as a positive control. Western blotting of Hsp70, phosphorylated and total Akt and co-immunoprecipitation of Hsp90(α/β)/p23 interactions was performed as described Inglese et al., (2006) Proc. Nat. Acad. Sci. U.S.A. 103: 11473-11478, incorporated herein by reference in its entirety. The expression of Raf-1 was determined using rabbit polyclonal antibodies against Raf-1 (0.5 μg/ml, Abcam).
# [2] = test system: DOX-resistant V79/ADR lung cancer cells; test: Sensitivity to DOX, Alamar Blue assay; assay type: cell-based; conditions: DOX 0.31-10 μM with inhibitor (CP9 8 μM), 24 h
# Protocol: FIGS. 13A-13C illustrate the inhibition of cell proliferation of DOX-resistant V79/ADR lung cancer cells by CP9 and the Hsp90 inhibitor PU-H71 in cell culture. V79 lung cancer cells and […] cells that are resistant to DOX were treated with DOX (0.31-10 μM) in the presence or absence of CP9 (8 μM) for 24 h before determination of cell number by an Alamar Blue assay.
# Both Hsp90 isoforms (α and β) are expressed in cancer cells, but Hsp90β is constitutively expressed, whereas the expression of Hsp90α is highly inducible during stress and drug treatment. Using the genetically encoded split Renilla reporter system according to the disclosure, it was possible to decipher the individual contributions of each isoform in determining the sensitivity of Hsp90 inhibitors. It was reported that the transcription of MDR1 is regulated by HSF-1, which in turn is regulated by Hsp90α (Trepel et al., (2010) Nat. Rev. Cancer 10: 537-549). To determine the biological significance of CP9 selectivity in inhibiting Hsp90α/p23 interactions, V79 lung cancer cells and V79/ADR cells that overexpress multidrug-resistant protein and are insensitive to growth inhibition by doxorubicin (DOX) were used. V79 and V79/ADR cells were treated with DOX alone or in the presence of CP9. On the other hand, the addition of CP9 sensitized V79/ADR cells to DOX, as shown by the decrease in cell proliferation relative to treatment with DOX alone, as shown in FIG. 13B. […] The results also are consistent with the observation that derivatives of Hsp90 inhibitor peptides sensitize cancer cells with overexpression of MDR to epirubicin (a class of anthracyclines that includes DOX) (Molnar et al., (2007) In Vivo 21: 429-433).
smiles,measurement,setting,value
"CC(C)NCCCn1c(Sc2cc3c(cc2I)OCO3)nc2c(N)ncnc21 [PU-H71, reference compound]","levels of Hsp90 client proteins (pAkt/total Akt, Raf-1)",[1],"decreased levels of Raf-1, pAkt and total Akt"
same,sensitivity of drug-resistant V79/ADR cells to DOX,[2],restored the sensitivity

# Reference: US20130310347A1, “MULTI-MODALITY MOLECULAR IMAGING HIGH-THROUGHPUT ASSAY FOR IDENTIFYING HEAT SHOCK PROTEIN 90 (HSP90) INHIBITORS” (The Board of Trustees of the Leland Stanford Junior …, priority 2012, published 2013)
